This data set in a line: Measurement of LogP values by HPLC on reversed phase columns (EEC directive 79/831 Annex V.A8). It is filed as physicochemical. Put shortly: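 Following EEC directive 79/831 Annex V.A8, lipophilicity was derived from retention on reversed-phase HPLC columns. Separate values are given per diastereoisomer, and UV lambda-max (200–400 nm) was read at the peak signals.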

Marks after values point to notes of the source that are not given here.

`COc1ccc(CNc2nsc(C(=O)NC(Cc3ccccc3)C3CCCCC3)c2Cl)cc1` (centres unmarked) [I-1079]: the LogP was 5.10[b].

`Nc1nsc(C(=O)NC(Cc2ccccc2)C2CCCCC2)c1Cl` (centres unmarked) [I-1095]: the LogP is 3.55[b].

Take `CCC(NC(=O)c1snc(NCc2ccc(OC)cc2)c1Cl)C1CCCCC1` (centres unmarked) [I-1170]: the LogP was 4.83[b].

Take `COc1ccc(CNc2nsc(C(=O)NC(C)c3ccncc3)c2Cl)cc1` (centres unmarked) [I-1189]: the LogP was 1.54[a].

`COc1ccc(CNc2nsc(C(=O)NC3CCOCC3)c2Cl)cc1` [I-1190]: the LogP was 2.50[a].

`CCC1CC(C)CC(CC)C1NC(=O)c1snc(NCc2ccc(OC)cc2)c1Cl` (centres unmarked) [I-1191]: the LogP was 6.02[a].

With `COc1ccc(CNc2nsc(C(=O)NC(c3ccccc3C)C(C)C)c2Cl)cc1` (centres unmarked) [I-1192], the LogP is 4.69[a].

For `CCc1ccc(CNC(=O)c2snc(NCc3ccc(OC)cc3)c2Cl)nc1` [I-1193], the LogP was 2.34[a].

As to `COc1ccc(CNc2nsc(C(=O)NCCCn3cccn3)c2Cl)cc1` [I-1194], the LogP was 2.53[a].

Take `COc1ccc(CNc2nsc(C(=O)NC3CCC3)c2Cl)cc1` [I-1195]: the LogP was 3.15[a].

As for `COc1ccc(CNc2nsc(C(=O)NCCC3CCOC3)c2Cl)cc1` (centres unmarked) [I-1196], the LogP is 2.59[a].

`COc1ccc(CNc2nsc(C(=O)NC(C)c3ccccn3)c2Cl)cc1` (centres unmarked) [I-1197]: the LogP was 2.57[a].

For the molecule `CCn1cc(CNC(=O)c2snc(NCc3ccc(OC)cc3)c2Cl)c(C(F)F)n1` [I-1198], the LogP is 3.09[a].

Consider `COc1ccc(CNc2nsc(C(=O)NCc3ccc(C(C)(C)C)cc3)c2Cl)cc1` [I-1199], for which the LogP was 4.69[a].

Turning to `COc1ccc(CNc2nsc(C(=O)NCC3COCC3C)c2Cl)cc1` (centres unmarked) [I-1200], the LogP was 2.68[a].

`COc1ccc(CNc2nsc(C(=O)NCc3cscc3C)c2Cl)cc1` [I-1201]: the LogP is 3.61[a].

On to `CCC(NC(=O)c1snc(NCc2ccc(OC)cc2)c1Cl)c1cn(CC)nc1C` (centres unmarked) [I-1202], for which the LogP was 3.02[a].

For `COc1ccc(CNc2nsc(C(=O)NCc3nc(C)cs3)c2Cl)cc1` [I-1203], the LogP is 2.80[a].

As to `COc1ccc(CNc2nsc(C(=O)NCc3ccnc(OC)c3)c2Cl)cc1` [I-1204], the LogP is 2.78[a].

With `CCn1cc(CNC(=O)c2snc(NCc3ccc(OC)cc3)c2Cl)cn1` [I-1205], the LogP is 2.48[a].

For `COc1ccc(CNc2nsc(C(=O)NC3CC(C)CC(C)(C)C3)c2Cl)cc1` (centres unmarked) [I-1206], the LogP is 5.00[a].

Consider `COc1ccc(CNc2nsc(C(=O)NC(C)c3ccc(C(C)C)cc3)c2Cl)cc1` (centres unmarked) [I-1207], for which the LogP was 4.69[a].

As to `COc1ccc(CNc2nsc(C(=O)NCC3OCCc4ccccc43)c2Cl)cc1` (centres unmarked) [I-1208], the LogP is 3.72[a].

As to `C#CC1(NC(=O)c2snc(NCc3ccc(OC)cc3)c2Cl)CCCCC1` [I-1209], the LogP was 3.99[a].

Regarding `COc1ccc(CNc2nsc(C(=O)NC3CCCC(C)C3C)c2Cl)cc1` (centres unmarked) [I-1210], the LogP was 4.46[a].

Consider `COc1ccc(CNc2nsc(C(=O)NCc3cccn3C)c2Cl)cc1` [I-1211], for which the LogP was 3.15[a].

For `COc1ccc(CNc2nsc(C(=O)NC(C)c3ccccc3F)c2Cl)cc1` (centres unmarked) [I-1212], the LogP was 3.79[a].

For the molecule `COc1ccc(CNc2nsc(C(=O)NCc3cncn3C)c2Cl)cc1` [I-1213], the LogP was 1.35[a].

In the case of `CCn1nc(C)c(CNC(=O)c2snc(NCc3ccc(OC)cc3)c2Cl)c1C` [I-1214], the LogP was 2.57[a].

For `CCC1CCCCC1NC(=O)c1snc(NCc2ccc(OC)cc2)c1Cl` (centres unmarked) [I-1215], the LogP was 4.49[a].

Turning to `COc1ccc(CNc2nsc(C(=O)NC3CCC4CCCCC4C3)c2Cl)cc1` (centres unmarked) [I-1216], the LogP was 5.24[a].

As for `COc1ccc(CNc2nsc(C(=O)NCc3csc(C)n3)c2Cl)cc1` [I-1217], the LogP is 2.69[a].

For `COc1ccc(CNc2nsc(C(=O)NC3CC(C(F)(F)F)CC(C(F)(F)F)C3)c2Cl)cc1` (centres unmarked) [I-1218], the LogP was 4.30[a].

As for `COc1ccc(CNc2nsc(C(=O)NC3C(C(C)C)CCCC3C(C)C)c2Cl)cc1` (centres unmarked) [I-1219], the LogP is 6.32[a].

For `COc1ccc(CNc2nsc(C(=O)NC3(C#N)CCCC3C)c2Cl)cc1` (centres unmarked) [I-1220], the LogP was 3.41[a].

Regarding `COc1ccc(CNc2nsc(C(=O)NCc3ccc(OC(F)F)cc3)c2Cl)cc1` [I-1229], the LogP was 3.63[a].

With `COc1ccc(CNc2nsc(C(=O)NCc3cc(OC)ccc3OC)c2Cl)cc1` [I-1230], the LogP is 3.59[a].

Consider `COc1ccc(CNc2nsc(C(=O)NCc3cnccn3)c2Cl)cc1` [I-1231], for which the LogP was 2.26[a].

In the case of `COc1ccc(CNc2nsc(C(=O)NC(C)(C)c3cccc(C(F)(F)F)c3)c2Cl)cc1` [I-1232], the LogP was 4.44[a].

As to `COc1ccc(CNc2nsc(C(=O)NCc3cccc(OC(F)(F)F)c3)c2Cl)cc1` [I-1233], the LogP is 4.13[a].

On to `COc1ccc(CNc2nsc(C(=O)NC(C)c3cccc(OC)c3)c2Cl)cc1` (centres unmarked) [I-1234], for which the LogP was 3.68[a].

In the case of `COc1ccc(CNc2nsc(C(=O)NCc3cccnc3OC)c2Cl)cc1` [I-1235], the LogP was 3.13[a].

`COc1ccc(CNc2nsc(C(=O)NCC3(C)CCCO3)c2Cl)cc1` (centres unmarked) [I-1236]: the LogP was 3.06[a].

Consider `CCn1ncc(CNC(=O)c2snc(NCc3ccc(OC)cc3)c2Cl)c1C` [I-1237], for which the LogP was 2.59[a].

Take `COc1ccc(CNc2nsc(C(=O)NCc3ccn(C)n3)c2Cl)cc1` [I-1238]: the LogP was 2.39[a].

`COc1ccc(CNc2nsc(C(=O)NC(C)Cc3ccco3)c2Cl)cc1` (centres unmarked) [I-1239]: the LogP was 3.55[a].

Turning to `COc1ccc(CNc2nsc(C(=O)NCc3ccc(OC)c(Cl)c3)c2Cl)cc1` [I-1240], the LogP was 3.68[a].

Consider `COc1ccc(CNc2nsc(C(=O)NCc3cccs3)c2Cl)cc1` [I-1241], for which the LogP was 3.31[a].

In the case of `COc1ccc(CNc2nsc(C(=O)NCc3ccc(OC(F)(F)F)cc3)c2Cl)cc1` [I-1242], the LogP was 4.15[a].

Consider `COc1ccc(CNc2nsc(C(=O)NCc3cccc(Cl)c3C)c2Cl)cc1` [I-1243], for which the LogP was 4.20[a].

For the molecule `COc1ccc(CNc2nsc(C(=O)NCCCn3ccnc3)c2Cl)cc1` [I-1244], the LogP is 1.36[a].

Take `COc1ccc(CNc2nsc(C(=O)NC3CCCCCC3)c2Cl)cc1` [I-1245]: the LogP was 4.27[a].

Regarding `COc1ccc(CNc2nsc(C(=O)NCc3cc(C(F)(F)F)ccc3Cl)c2Cl)cc1` [I-1246], the LogP is 4.37[a].

`CCOc1ccccc1CNC(=O)c1snc(NCc2ccc(OC)cc2)c1Cl` [I-1247]: the LogP was 4.08[a].

Regarding `COc1ccc(CNc2nsc(C(=O)NC3Cc4ccccc4C3)c2Cl)cc1` [I-1248], the LogP was 3.90[a].

As to `COc1ccc(CNc2nsc(C(=O)NCc3ccc(Cl)c(C(F)(F)F)c3)c2Cl)cc1` [I-1249], the LogP was 4.34[a].

Regarding `COc1ccc(CNc2nsc(C(=O)NC(C)C3(Cl)CC3)c2Cl)cc1` (centres unmarked) [I-1250], the LogP is 3.90[a].

For `COc1ccc(CNc2nsc(C(=O)NC(c3cncnc3)C(C)C)c2Cl)cc1` (centres unmarked) [I-1251], the LogP was 2.73[a].

As to `COc1ccc(CNc2nsc(C(=O)NC3CCC(C(C)(C)C)CC3)c2Cl)cc1` (centres unmarked) [I-1252], the LogP was 5.51[a].

(Values after patent US20190110476A1, “NOVEL ISOTHIAZOLAMIDES, PROCESSES FOR THEIR PREPARATION AND THEIR USE AS FUNGICIDES” (priority 2014, published 2019).)
